Patent publication US7615527B2, “Peptides which modulate blood coagulation and methods of use thereof” (Oregon Health & Science University, priority 2001, dated 2009)
Ends that are not written are not given here.

Experiments:
[1] = test system: normal human reference plasma; assay: Activated partial thromboplastin time (aPTT) assay in human plasma; format: biochemical; conditions: 1 mM peptide; reference blood plasma; without peptide 29.0±0.1 seconds
Procedure: Activated Partial Thromboplastin Time (aPTT) Assay. This anti-coagulation assay was chosen for testing the γ′ peptides due to its sensitivity to heparin-like compounds, its ease of use, and the ability to automate the procedure. An MLA 1600 instrument (Organon Teknika) was used to quantitate the effect of the γ′ peptides on the aPTT, using the manufacturer's protocol. Briefly, 0-1 mM γ′ peptides or 0-10 units/ml unfractionated heparin was added to 50 μl of normal reference plasma (Ortho) and manually loaded into the MLA 1600. The MLA 1600 added SynthASil aPTT reagent (Ortho) to initiate clotting, and clot formation was monitored spectrophotometrically for 106 seconds. […] Prothrombin Time/International Normalized Ratio Assay. This clotting assay is less sensitive to heparin than the aPTT, and may be used to determine if a γ′ peptide is capable of prolonging the prothrombin time (PT) to the same extent as the 3 aPTT. One-stage PT assays may be performed using an MLA 1600 instrument according to the manufacturer's protocol. Briefly, 0-1 mM γ′ peptide or scrambled peptide or 0-10 units/ml unfractionated heparin may be added to 50 μl of normal reference plasma (Ortho) and manually loaded into the MLA 1600. The MLA 1600 may be used to add recombinant thromboplastin (Recombiplastin, Ortho) to initiate clotting, and clot formation monitored spectrophotometrically for 106 seconds. If a clot is not generated within 106 seconds, the MLA will automatically extend the observation time to 212 seconds.
An aPTT assay was performed using human plasma to determine the effect of γ′ peptide on the clotting time in this system. […] The MLA 1600 added SynthASil aPTT reagent (Ortho) to initiate clotting and clot formation was monitored spectrophotometrically for 106 seconds. […]
An aPTT assay was performed using human plasma to determine the effect of γ′ deletion peptides on the clotting time in this system. […] The MLA 1600 added SynthASil aPTT reagent (Ortho) to initiate clotting and clot formation was monitored spectrophotometrically for 106 seconds. […]

[2] = test system: platelet aggregation in platelet-rich plasma; assay: Platelet aggregometry assay (PAP-4) in platelet-rich plasma; format: cell-based; conditions: for Platelet aggregation Slope, ADP / Platelet aggregation Extent, ADP: 2 μM ADP; for Platelet aggregation Slope, ADP: 0 mM: 47; for Platelet aggregation Extent, ADP / Platelet aggregation Extent, Epinephrine: 0 mM: 83%; for Platelet aggregation Slope, Epinephrine / Platelet aggregation Extent, Epinephrine: 10 μg/ml epinephrine; for Platelet aggregation Slope, Epinephrine: 0 mM: 24; for Platelet aggregation Slope, Arachidonic Acid / Platelet aggregation Extent, Arachidonic Acid: 0.5 mg/ml arachidonic acid; for Platelet aggregation Slope, Arachidonic Acid: 0 mM: 32; for Platelet aggregation Extent, Arachidonic Acid: 0 mM: 82%; for Platelet aggregation Extent, Thrombin / Platelet aggregation Slope, Thrombin: 0.2 units/ml thrombin; for Platelet aggregation Extent, Thrombin: 0 mM: 97%; for Platelet aggregation Slope, Thrombin: 0 mM: 113
Procedure: Reptilase Time Assays. The reptilase time may be used as a control assay to examine the effects of a γ′ peptide. This assay is insensitive to thrombin inhibitors, since reptilase is used to clot fibrinogen rather than thrombin. An LA STA instrument (Diagnostica Stago) may be used to quantitate the effect of the γ′ peptide on the RVV, using the manufacturer's protocol. Briefly, 0-1 mM γ′ peptide or scrambled peptide or 0-10 units/ml unfractionated heparin may be added to 1 ml of normal reference plasma (DVVtroll) and loaded into the LA STA. The LA STA may be used to add Reptilase ST reagent (American Diagnostica) to initiate clotting, and clot formation monitored spectrophotometrically for 65 seconds. […] Platelet Aggregometzy Assays. This assay may be used to test the effects of a γ′ peptide on platelet aggregation in platelet-rich plasma. The activity of a γ′ peptide may be assayed in the presence or absence of epinephrine, ADP, collagen, ristocetin, arachidonic acid, and thrombin. A PAP-4 platelet aggregometer (Bio/Data) was used to quantitate the effect of the γ′ peptide on platelet aggregation, using the manufacturer's protocol. […] Blood was centrifuged for 10 minutes at 1,000×g, to isolate the supernatant of platelet-rich plasma. All experiments were performed within 2 hours of the blood draw. 0-1 mM γ′ peptide or scrambled peptide or 0-10 units/ml unfractionated heparin was added to 450 μl of platelet-rich plasma and loaded into siliconized cuvettes. 50 μl of agonist was added and the absorbance monitored for 6 minutes. The agonists used were 10 μg/ml epinephrine (American Reagent Laboratories), 2 μM ADP (Sigma), 0.5 mg/ml arachidonic acid (Bio/Data), or 0.2 units/ml thrombin. The presence or absence of a bi-phasic response may be determined, which is of particular significance in the presence of epinephrine, ADP, and ristocetin. The length of the lag phase may be determined, which is especially relevant in the presence of collagen. PFA-100 Assays. The effect of the γ′ peptide on platelet function may also be assessed using a Platelet Function Analyzer (PFA-100™, Dade Behring). The PFA-100 instrument measures the closure time of a capillary tube containing whole blood. This assay may be used to advantage to examine the effect of γ′ peptide on platelet function in whole blood in the presence of either of the platelet agonists epinephrine or ADP. Briefly, 0-1 mM γ′ peptide or scrambled peptide or 0-10 units/ml unfractionated heparin may be added to 800 μl of normal reference whole blood from an established control group and loaded into the PFA-100 to measure the closure time. Platelet function may be tested using both a collagen/epinephrine cartridge and a collagen/ADP cartridge
Platelet aggregation assays were performed as described hereinabove. A PAP-4 platelet aggregometer (Bio/Data) was used to quantitate the effect of the γ′ peptide on platelet aggregation, using the manufacturer's protocol.
Blood was centrifuged for 10 minutes at 1,000×g, and the supernatant of platelet-rich plasma was separated. 0-1 mM γ′ peptide was added to 450 μl of platelet-rich plasma and loaded into siliconized cuvettes. 50 μl of agonist was added, and the absorbance was monitored for 6 minutes. The agonists used were 2 μM ADP (Sigma), 0.5 mg/ml arachidonic acid (Bio/Data), 10 μg/ml epinephrine (American Reagent Laboratories), or 0.2 units/ml thrombin.

PEHPAETEY(*)DSLY(*)PEDDL (PEHPAETEYDSLYPEDDL; not fully specified (residues 9, 13); printed as PEHPAETEY(*)DSLY(*)PEDDL) [γ′ 410-427]
Blood clotting time, activated partial thromboplastin assay [1]: 55.1 ± 0.0 s
Platelet aggregation Slope, ADP ([2]; 0.125 mM peptide): 43
Platelet aggregation Extent, ADP ([2]; 0.125 mM peptide): 87%
Platelet aggregation Slope, ADP ([2]; 0.25 mM peptide): 40
Platelet aggregation Extent, ADP ([2]; 0.25 mM peptide): 86%
Platelet aggregation Slope, ADP ([2]; 0.5 mM peptide): 39
Platelet aggregation Extent, ADP ([2]; 0.5 mM peptide): 82%
Platelet aggregation Slope, ADP ([2]; 1.0 mM peptide): 32
Platelet aggregation Extent, ADP ([2]; 1.0 mM peptide): 58%
Platelet aggregation Slope, Epinephrine ([2]; 0.125 mM peptide): 22
Platelet aggregation Extent, Epinephrine ([2]; 0.125 mM peptide): 84%
Platelet aggregation Slope, Epinephrine ([2]; 0.25 mM peptide): 20
Platelet aggregation Extent, Epinephrine ([2]; 0.25 mM peptide): 82%
Platelet aggregation Slope, Epinephrine ([2]; 0.5 mM peptide): 16
Platelet aggregation Extent, Epinephrine ([2]; 0.5 mM peptide): 78%
Platelet aggregation Slope, Epinephrine ([2]; 1.0 mM peptide): 9
Platelet aggregation Extent, Epinephrine ([2]; 1.0 mM peptide): 43%
Platelet aggregation Slope, Arachidonic Acid ([2]; 0.125 mM peptide): 33
Platelet aggregation Extent, Arachidonic Acid ([2]; 0.125 mM peptide): 81%
Platelet aggregation Slope, Arachidonic Acid ([2]; 0.25 mM peptide): 35
Platelet aggregation Extent, Arachidonic Acid ([2]; 0.25 mM peptide): 82%
Platelet aggregation Slope, Arachidonic Acid ([2]; 0.5 mM peptide): 31
Platelet aggregation Extent, Arachidonic Acid ([2]; 0.5 mM peptide): 83%
Platelet aggregation Slope, Arachidonic Acid ([2]; 1.0 mM peptide): 34
Platelet aggregation Extent, Arachidonic Acid ([2]; 1.0 mM peptide): 85%
Platelet aggregation Extent, Thrombin ([2]; 0.125 mM peptide): 68%
Platelet aggregation Slope, Thrombin ([2]; 0.125 mM peptide): 70
Platelet aggregation Extent, Thrombin ([2]; 0.25 mM peptide): 64%
Platelet aggregation Slope, Thrombin ([2]; 0.25 mM peptide): 39
Platelet aggregation Extent, Thrombin ([2]; 0.5 mM peptide): 93%
Platelet aggregation Slope, Thrombin ([2]; 0.5 mM peptide): 21
Platelet aggregation Extent, Thrombin ([2]; 1.0 mM peptide): 33%
Platelet aggregation Slope, Thrombin ([2]; 1.0 mM peptide): 10
